Experimental findings from BindingDB's records for doi:10.1016/0024-3205(94)00413-m (Sanofi Recherche, 1995) are described below.

“And” between values parts separate entries of the source, which are not always exact repeats. Identical values can stand only once.

Assay [1] deals with T1, Substance-K receptor (Mesocricetus auratus, UniProt P51144).
T1 sequence (P51144 whole entry): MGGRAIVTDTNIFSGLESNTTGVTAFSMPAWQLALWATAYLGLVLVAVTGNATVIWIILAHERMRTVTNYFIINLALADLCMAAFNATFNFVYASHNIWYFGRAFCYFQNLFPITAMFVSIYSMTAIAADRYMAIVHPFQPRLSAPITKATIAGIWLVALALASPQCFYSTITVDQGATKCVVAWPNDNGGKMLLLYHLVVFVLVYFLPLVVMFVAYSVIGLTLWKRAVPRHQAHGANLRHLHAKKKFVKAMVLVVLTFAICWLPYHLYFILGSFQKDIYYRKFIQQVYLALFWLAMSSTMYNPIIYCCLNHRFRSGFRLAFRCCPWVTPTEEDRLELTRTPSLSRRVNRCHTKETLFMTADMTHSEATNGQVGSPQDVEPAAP

Assay [2] concerns the target T2, Substance-K receptor (Cavia porcellus, UniProt Q64077).
T2 sequence (Q64077 whole entry): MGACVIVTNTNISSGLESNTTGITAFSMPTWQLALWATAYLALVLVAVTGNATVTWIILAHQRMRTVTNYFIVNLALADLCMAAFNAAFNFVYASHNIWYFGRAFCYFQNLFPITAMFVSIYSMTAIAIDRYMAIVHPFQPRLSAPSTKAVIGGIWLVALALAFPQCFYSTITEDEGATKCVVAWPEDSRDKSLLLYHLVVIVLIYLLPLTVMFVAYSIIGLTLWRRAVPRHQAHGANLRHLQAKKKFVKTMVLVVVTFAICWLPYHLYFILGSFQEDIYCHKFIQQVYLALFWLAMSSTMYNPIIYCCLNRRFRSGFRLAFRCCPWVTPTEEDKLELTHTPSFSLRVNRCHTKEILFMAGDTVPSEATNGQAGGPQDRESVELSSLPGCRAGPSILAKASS

Assay [3] deals with T3, Substance-K receptor (Rattus norvegicus, UniProt P16610).
T3 sequence (P16610 whole entry): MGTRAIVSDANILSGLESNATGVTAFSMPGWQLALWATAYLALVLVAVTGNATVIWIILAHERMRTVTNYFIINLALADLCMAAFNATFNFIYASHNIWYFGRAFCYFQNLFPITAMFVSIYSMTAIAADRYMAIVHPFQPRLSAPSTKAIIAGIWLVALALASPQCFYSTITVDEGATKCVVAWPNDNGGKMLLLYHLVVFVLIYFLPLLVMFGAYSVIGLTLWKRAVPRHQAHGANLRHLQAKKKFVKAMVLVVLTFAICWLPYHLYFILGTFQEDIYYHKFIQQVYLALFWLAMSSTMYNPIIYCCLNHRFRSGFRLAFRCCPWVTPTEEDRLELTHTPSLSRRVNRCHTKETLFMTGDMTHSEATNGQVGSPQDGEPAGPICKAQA

The target of another assay is Substance-P receptor (Rattus norvegicus, UniProt P14600).
Sequence of Substance-P receptor (P14600 whole entry): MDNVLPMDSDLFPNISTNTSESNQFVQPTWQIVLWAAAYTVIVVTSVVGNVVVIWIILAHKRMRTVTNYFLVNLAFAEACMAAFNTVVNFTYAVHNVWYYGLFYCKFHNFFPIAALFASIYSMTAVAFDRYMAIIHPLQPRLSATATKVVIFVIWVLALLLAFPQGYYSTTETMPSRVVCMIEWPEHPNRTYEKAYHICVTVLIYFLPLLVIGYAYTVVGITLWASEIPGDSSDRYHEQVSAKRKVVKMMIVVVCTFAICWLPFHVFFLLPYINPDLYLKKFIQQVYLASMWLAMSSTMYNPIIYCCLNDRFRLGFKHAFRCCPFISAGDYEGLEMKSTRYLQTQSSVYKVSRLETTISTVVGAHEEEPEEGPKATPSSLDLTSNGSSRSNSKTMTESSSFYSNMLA

With `CC(=O)N(C)C1(c2ccccc2)CCN(CCCC2(c3ccc(Cl)c(Cl)c3)CCCN(C(=O)c3ccccc3)C2)CC1` (centres undefined) [SR 142806], the Ki was 2000 nM on Substance-K receptor [1]; 73 nM and 350 nM at Substance-K receptor [2]; 100 nM and 248 nM on Substance-K receptor [3]; 2000 nM on Substance-P receptor.
